Broadly, the Vd is a proportionality between amount in the body and measured concentration, not a real space. What is called clearance is the volume of plasma or blood freed of the substance per unit of time. In general, AUC(0-inf) refers to the area under the concentration-time curve extrapolated to infinity. Higher therefore signals more exposure.

The results in this text go back to publication PMC6271376 (Molecules, 2013).

Data set [1] is described as follows: Pharmacokinetic study in rats following intravenous administration. Type of data set: in vivo. To be noted: Sprague-Dawley, rat, plasma. As for the experimental part:
Male SD rats weighing from 210 to 240 g were used for the PK study. All animal experiments were performed in accordance with institutional guidelines and were approved by the University Committee on Use and Care of Animals, Shenyang Pharmaceutical University. […] Serial blood samples (0.2 mL) were obtained at 0.08, 0.17, 0.25, 0.5, 0.75, 1, 1.5, 2, 3, 4, 6, 8, 10 and 12 h after intravenous administration. All samples were placed into heparinised tubes. The rat plasma samples were centrifuged at 13,000 rpm for 10 min, and the plasma supernatant was collected. THU was added to the plasma supernatant at a final concentration of 100 µM. The plasma was frozen at −80 °C until analysis.

A short description of data set [2]: Stability of azacitidine in rat plasma exposed to various storage conditions. The note with it: for Concentration found: n = 3.
Description: The selectivity was assessed by comparing the chromatograms of six different batches of blank rat plasma with the corresponding spiked rat plasma. […] The linearity was assessed by weighted (1/x^2) least-squares analysis of six different calibration curves. The LLOQ of the assay was the lowest concentration of the analyte with the recommended precision and accuracy less than 20%. The intra- and inter-day precision (the relative standard deviation, RSD) and accuracy (the relative error, RE) were determined by the analysis of low, medium, and high QC samples (n = 6) on 3 different days. The stability of the QC samples (n = 3) in three complete freeze/thaw cycles (−80 to 20 °C), long-term sample storage (−80 °C for 30 days) and on the bench top (20 °C for 2 h) was assessed. The ready-for-injection stability of the extracted samples in the autosampler rack at 4 °C for 24 h was also evaluated. The analytes were considered stable when the accuracy bias was within ± 20% of the nominal concentration.
Where [3] appears, read: male SD rats, 2.5 mg/kg, mean ± SD, n = 3.

For the compound `Nc1ncn([C@@H]2O[C@H](CO)[C@@H](O)[C@H]2O)c(=O)n1` [Azacitidine], the half-life in data set [1] (male SD rats, single dose 2.5 mg/kg, mean ± SD, n = 3, read-out: t1/2β (elimination half-life) (converted)) is 30.4 ± 11.9 min. Also, the Vd in data set [1] (setting [3]) came to 2.07 ± 0.17 L/kg. The compound further showed a clearance in data set [1] (setting [3]) of 1.25 L/h/kg. Also, in data set [1] (male, SD rats, single dose 2.5 mg/kg), the AUC(0-inf) was 2 µg·h/mL. Further, the Concentration found in data set [2] (extracted rat plasma samples, sample rack for 24 h at 4 °C, added 20 ng/mL) is 23.8 ng/mL; in data set [2] (extracted rat plasma samples, sample rack for 24 h at 4 °C, added 10,000 ng/mL), 9,966.3 ng/mL; in data set [2] (rat plasma, Ambient, 2 h, added 20 ng/mL), 24.0 ng/mL; in data set [2] (rat plasma, Ambient, 2 h, added 10,000 ng/mL), 10,388.5 ng/mL; in data set [2] (rat plasma, three freeze–thaw cycles, added 20 ng/mL), 24.0 ng/mL; in data set [2] (rat plasma, three freeze–thaw cycles, added 10,000 ng/mL), 10,073.4 ng/mL. The Concentration found is on record as 24.0 ng/mL in data set [2] (rat plasma, −80 °C, 30 days, added 20 ng/mL) and 9,519.1 ng/mL in data set [2] (rat plasma, −80 °C, 30 days, added 10,000 ng/mL). Moreover, in data set [2] (rat plasma, all storage conditions of Table 3), the “Stability (change in azacitidine concentrations)” value is on record as “No significant changes”.
